Measurements published in US9624215B2, “Amine derivative or salt thereof” (TOYAMA CHEMICAL CO., LTD., priority 2012, dated 2017).

How the values were obtained:
[1] = tested on: normal human neonatal foreskin epidermal keratinocytes (NHEK-F); assay: Cell proliferation inhibition test; format: cell-based; details: Keratinocyte, 72 h, NHEK-F cells, three days incubation, ATPlite or CellTiterGlo, read-out: IC50 (concentration of the compound at which the cell count is reduced by 50%)
Method in brief: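 IC50 is the compound level halving cell count relative to untreated wells, with counts from ATP-based luminescence (ATPlite or CellTiterGlo). Readout followed 3 days of compound exposure of overnight-attached neonatal foreskin keratinocytes (2×10^3/well, Humedia-EG2 medium).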

[2] = tested on: TPA-induced ear edema and acanthosis in Balb/c mice; assay: Mouse TPA-induced ear-swelling model; format: in vivo; details: topical, 240 h, 1% w/v solution, 20 μL applied to ear once a day from day 0 to day 9, female Balb/c mice, read-out: Inhibition rate of change in ear thickness on day 10
Method: Seven-week-old female Balb/c mice (Charles River Laboratories Japan) were used. 20 μL of a 20 ng/mL solution of TPA (Wako Pure Chemical Industries, 162-23591) dissolved in 5% DMSO/acetone was applied to the outer side of the mouse ear on day 0, day 2, day 4, day 7 and day 9 to induce ear edema and acanthosis. The test compound was dissolved in a 5% DMSO/acetone solution (concentration: 1% w/v) and 20 μL of the resulting solution was applied to the outer side of the ear once a day from day 0 to day 9. For the control group, a 5% DMSO/acetone solution was similarly applied. The TPA solution and the test compound solution were mixed and applied on the days for TPA application (day 0, day 2, day 4, day 7 and day 9). The ear thickness was chronologically measured on days 0-4 and days 7-10 using a micrometer (Mitutoyo, MDC-25MJT). The change in ear thickness and the inhibition rate were determined by the following formulas. Change in ear thickness=(ear thickness measured on day 10)−(ear thickness measured on day 0 before TPA application) Inhibition rate (%)=100−(change in ear thickness for test compound group/change in ear thickness for control group)×100

SMILES	IC50 [1] [nM]	inhibition in vivo at 1 % strength [2] [%]
CC(C)Cn1ccc2cc(Nc3ncc(C4CC4)cc3C(=O)O)ccc21 [Example 126, 2-((1-isobutyl-1H-indol-5-yl)amino)-5-cyclopropylnicotinic acid]	≤ 10	≥ 20
CCn1ccc2cc(Nc3ncc(C4CC4)cc3C(=O)O)cc(CCCOC)c21 [Example 598, 5-cyclopropyl-2-((1-ethyl-7-(3-methoxypropyl)-1H-indol-5-yl)amino)nicotinic acid]	10 to 100	≥ 20
CCn1ccc2cc(Nc3ncc(C4CC4)cc3C(=O)O)cc(-c3ccccc3)c21 [Example 597, 5-cyclopropyl-2-((1-ethyl-7-phenyl-1H-indol-5-yl)amino)nicotinic acid]	≤ 10	≥ 20
CS(=O)(=O)NC(=O)c1cc(C2CC2)cnc1Nc1ccc2c(ccn2Cc2ccccc2)c1 [Example 149, 2-((1-benzyl-1H-indol-5-yl)amino)-5-cyclopropyl-N-(methylsulfonyl)nicotinamide]	10 to 100	≥ 20
CCCCn1ccc2cc(Nc3ncc(C4CC4)cc3C(=O)O)ccc21 [Example 637, 2-((1-butyl-1H-indol-5-yl)amino)-5-cyclopropylnicotinic acid]	10 to 100	≥ 20
Cc1cc2c(ccn2Cc2ccccc2)cc1Nc1ncc(C2CC2)cc1C(=O)O [Example 585, 2-((1-benzyl-6-methyl-1H-indol-5-yl)amino)-5-cyclopropylnicotinic acid]	≤ 10	≥ 20
Cn1cc(-c2ccccc2F)c2cc(Nc3ncc(C4CC4)cc3C(=O)O)ccc21 [Example 557, 5-cyclopropyl-2-((3-(2-fluorophenyl)-1-methyl-1H-indol-5-yl)amino)nicotinic acid]	10 to 100	≥ 20
Cn1ccc2cc(Nc3ncc(C4CC4)cc3C(=O)O)cc(CCC(C)(C)C)c21 [Example 595, 5-Cyclopropyl-2-((7-(3,3-dimethylbutyl)-1-methyl-1H-indol-5-yl)amino)nicotinic acid]	≤ 10	≥ 20
COc1ccccc1-c1cc(Nc2ncc(C3CC3)cc2C(=O)O)cc2ccn(C)c12 [Example 485, 5-cyclopropyl-2-((7-(2-methoxyphenyl)-1-methyl-1H-indol-5-yl)amino)nicotinic acid]	≤ 10	≥ 20
O=C(O)c1cc(C2CC2)cnc1Nc1ccc2c(ccn2Cc2ccc(F)c(F)c2)c1 [Example 635, 5-cyclopropyl-2-((1-(3,4-difluorobenzyl)-1H-indol-5-yl)amino)nicotinic acid]	≤ 10	≥ 20
O=C(O)c1cc(C2CC2)cnc1Nc1cccc2c1ccn2Cc1ccccc1 [Example 208, 2-((1-benzyl-1H-indol-4-yl)amino)-5-cyclopropylnicotinic acid]	10 to 100	≥ 20
Cc1cc(Nc2ncc(C3CC3)cc2C(=O)O)cc2ccn(Cc3cccc(F)c3)c12 [Example 621, 5-cyclopropyl-2-((1-(3-fluorobenzyl)-7-methyl-1H-indol-5-yl)amino)nicotinic acid]	≤ 10	≥ 20
O=C(O)c1cc(C2CC2)cnc1Nc1ccc2c(ccn2CC2CCCC2)c1 [Example 138, 2-((1-(cyclopentylmethyl)-1H-indol-5-yl)amino)-5-cyclopropylnicotinic acid]	≤ 10	≥ 20
O=C(O)c1cc(C2CC2)cnc1Nc1ccc2c(ccn2Cc2cccc(F)c2F)c1 [Example 642, 5-cyclopropyl-2-((1-(2,3-difluorobenzyl)-1H-indol-5-yl)amino)nicotinic acid]	≤ 10	≥ 20
CCC(CC)Cn1ccc2cc(Nc3ncc(C4CC4)cc3C(=O)O)ccc21 [Example 632, 5-cyclopropyl-2-((1-(2-ethylbutyl)-1H-indol-5-yl)amino)nicotinic acid]	≤ 10	≥ 20
N#Cc1cccc(Cn2ccc3cc(Nc4ncc(C5CC5)cc4C(=O)O)ccc32)c1 [Example 453, 2-((1-(3-cyanobenzyl)-1H-indol-5-yl)amino)-5-cyclopropylnicotinic acid]	10 to 100	≥ 20
Cc1ccccc1Cn1ccc2cc(Nc3ncc(C4CC4)cc3C(=O)O)ccc21 [Example 455, 5-cyclopropyl-2-((1-(2-methylbenzyl)-1H-indol-5-yl)amino)nicotinic acid]	≤ 10	≥ 20

SMILES	IC50 [1] [nM]	inhibition in vivo at 1 % strength [2] [%]
O=C(O)c1cc(C2CC2)cnc1Nc1ccc2c(ccn2Cc2cccc(C(F)(F)F)c2)c1 [Example 450, 5-cyclopropyl-2-((1-(3-(trifluoromethyl)benzyl)-1H-indol-5-yl)amino)nicotinic acid]	≤ 10	≥ 20
Cn1ccc2cc(Nc3ncc(C4CC4)cc3C(=O)O)cc(-c3ccc(C#N)cc3)c21 [Example 484, 2-((7-(4-cyanophenyl)-1-methyl-1H-indol-5-yl)amino)-5-cyclopropylnicotinic acid]	≤ 10	≥ 20
O=C(O)c1cc(C2CCCC2)cnc1Nc1ccc2c(ccn2Cc2ccccc2)c1 [Example 128, 2-((1-benzyl-1H-indol-5-yl)amino)-5-cyclopentylnicotinic acid]	–	≥ 20
COc1cccc(Cn2ccc3cc(Nc4ncc(C5CC5)cc4C(=O)O)ccc32)c1 [Example 237, 5-cyclopropyl-2-((1-(3-methoxybenzyl)-1H-indol-5-yl)amino)nicotinic acid]	10 to 100	≥ 20
O=C(O)c1cc(C2CC2)cnc1Nc1ccc2c(ccn2Cc2cccc(Cl)c2)c1 [Example 460, 2-((1-(3-chlorobenzyl)-1H-indol-5-yl)amino)-5-cyclopropylnicotinic acid]	≤ 10	≥ 20
COCCCc1cc(Nc2ncc(C3CC3)cc2C(=O)O)cc2ccn(C)c12 [Example 468, 5-cyclopropyl-2-((7-(3-methoxypropyl)-1-methyl-1H-indol-5-yl)amino)nicotinic acid]	10 to 100	≥ 20
CCn1c(-c2ccccc2)cc2cc(Nc3ncc(C4CC4)cc3C(=O)O)ccc21 [Example 142, 5-cyclopropyl-2-((1-ethyl-2-phenyl-1H-indol-5-yl)amino)nicotinic acid]	10 to 100	≥ 20
O=C(O)c1cc(C2CC2)cnc1Nc1ccc2c(ccn2Cc2ccc(F)cc2F)c1 [Example 633, 5-cyclopropyl-2-((1-(2,4-difluorobenzyl)-1H-indol-5-yl)amino)nicotinic acid]	≤ 10	≥ 20
O=C(O)c1cc(C2CC2)cnc1Nc1ccc2c(ccn2Cc2cc(F)ccc2F)c1 [Example 641, 5-cyclopropyl-2-((1-(2,5-difluorobenzyl)-1H-indol-5-yl)amino)nicotinic acid]	≤ 10	≥ 20
Cn1ccc2cc(Nc3ncc(C4CC4)cc3C(=O)O)cc(-c3cccc(C#N)c3)c21 [Example 483, 2-((7-(3-cyanophenyl)-1-methyl-1H-indol-5-yl)amino)-5-cyclopropylnicotinic acid]	≤ 10	–
COc1ccc(-c2cc(Nc3ncc(C4CC4)cc3C(=O)O)cc3ccn(C)c23)cc1 [Example 487, 5-cyclopropyl-2-((7-(4-methoxyphenyl)-1-methyl-1H-indol-5-yl)amino)nicotinic acid]	≤ 10	–
O=C(O)c1cc(C2CC2)cnc1Nc1ccc2c(ccn2CCCc2ccccc2)c1 [Example 618, 5-cyclopropyl-2-((1-(3-phenylpropyl)-1H-indol-5-yl)amino)nicotinic acid]	≤ 10	–
CC(C)(C)c1cc2cc(Nc3ncc(C4CC4)cc3C(=O)O)ccc2[nH]1 [Example 389, 2-((2-(tert-butyl)-1H-indol-5-yl)amino)-5-cyclopropylnicotinic acid]	100 to 1000	–
O=C(O)c1cc(Cl)ccc1Nc1ccc2c(ccn2Cc2ccccn2)c1 [Example 341, 5-chloro-2-((1-(pyridin-2-ylmethyl)-1H-indol-5-yl)amino)benzoic acid]	10 to 100	–
CC(C)c1cnc(Nc2ccc3c(ccn3Cc3ccccc3)c2)c(C(=O)O)c1 [Example 379, 2-((1-benzyl-1H-indol-5-yl)amino)-5-isopropylnicotinic acid]	10 to 100	–
O=C(O)c1cc(Cl)ccc1Nc1ccc2c(c1)cc(CO)n2Cc1ccccc1 [Example 25, 2-((1-benzyl-2-(hydroxymethyl)-1H-indol-5-yl)amino)-5-chlorobenzoic acid]	10 to 100	–
O=C(O)c1cc(C2CC2)cnc1Nc1ccc2c(ccn2Cc2ccccc2Cl)c1 [Example 459, 2-((1-(2-chlorobenzyl)-1H-indol-5-yl)amino)-5-cyclopropylnicotinic acid]	≤ 10	–
